The values below come from publication PMC9112662, “Scaffold stability and P14′ residue steric hindrance in the differential inhibition of FXIIa by Aedes aegypti trypsin inhibitor versus Infestin-4” (Bioscience Reports, 2022).

Positions of bridges follow the written chain, without caps; N, C: chain ends. No end group written: not given here.

Test [1] has as its target T1, FXIIa (Homo sapiens, UniProt P00748).
T1 construct: gene F12; human FXIIa (Merck)
T1 sequence (P00748 373-615): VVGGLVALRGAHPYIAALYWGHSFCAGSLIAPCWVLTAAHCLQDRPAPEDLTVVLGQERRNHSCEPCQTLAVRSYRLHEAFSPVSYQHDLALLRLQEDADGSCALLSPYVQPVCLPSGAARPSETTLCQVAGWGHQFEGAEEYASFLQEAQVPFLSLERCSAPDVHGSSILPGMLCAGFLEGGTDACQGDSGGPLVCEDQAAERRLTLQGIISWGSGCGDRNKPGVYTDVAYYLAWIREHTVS
The following applies: n = 3; read-out: IC50 values toward FXIIa. The procedure:
For IC50 determination, FXIIa was pre-incubated with different concentrations of inhibitors. The generation of p-nitroaniline (pNA) was determined by measuring the absorbance at 405 nm using a absorbance plate reader (Tecan; Männedorf, Switzerland). The reaction mixture consisted of 40 µl FXIIa (10 nM), 40 µl inhibitor, and 40 µl chromogenic substrate (1 mM). All reaction components were prepared in 50 mM Tris pH 7.4 containing 100 mM NaCl.
For IC50 calculations, log[inhibitor concentration] vs. percentage normalized inhibition was plotted using a non-linear regression curve function, created with Kaleidagraph 4.5.2 (Synergy Software; Reading, PA). All data represent the mean ± SD for triplicate values.

Test [2] has as its target FXIIa. The following applies: cited from earlier work.
The target in test [3] is plasmin. The following applies: cited from earlier work.
Test [4] addresses human Factor XIIa (human) (UniProt P00748).
The target of test [5] is thrombin. As to conditions: cited from earlier work. The text has this:
The Kazal-type inhibitor, Aedes aegypti trypsin inhibitor (AaTI), is a novel trypsin Kazal-type inhibitor from Aedes aegypti, the primary vector of mosquito-borne diseases like dengue. […] AaTI has a similar structure to that of Inf4 [19], and with only a 3-residue difference in the reactive-site loop sequence. The reactive-site loop sequence makes most-if not all-of the direct contacts with the protease and is thought to be the sole factor that govern the inhibitor specificity.

By IC50 is commonly meant the concentration needed to halve the response being measured. “AaTI with C1C3 and C5C6 regions of Inf4 and N27G (His-tagged) [AaTI_Inf4 C1C3+C5C6+N27G]”: the half-inhibitory concentration (IC50) in test [1] was found to be 11.4 ± 3.1 nM.

As a reminder, the Ki is a dissociation constant, usually derived from enzyme kinetics or from competition with a known ligand. Turning to “KEVRNPCACFRNYVPVCGSDGKTYGNPCMLNCAAQTKVPGLKLVHEGRCQRSNVEQF (disulfide 7-32, 9-28, 17-49) [Wild-type Inf4]”, the Ki was 0.128 nM in test [2] and 2.1 nM in test [3].

With “AaTI with C1C3 region of Inf4 and F10A (His-tagged) [AaTI_Inf4 C1C3+F10A]”, the IC50 in test [1] amounted to 610 ± 206 nM.

In turn, Inf4_N12I (domain or fragment) displayed an IC50 of inhibition of FXIIa activity, chromogenic assay (substrate S-2302) in test [4] of 8.4 nM.

In turn, Inf4_V14M (domain or fragment) registered an IC50 of inhibition of FXIIa activity, chromogenic assay (substrate S-2302) in test [4] of 9.9 nM.

Turning to “Aedes aegypti trypsin inhibitor, RSDAERGVCACPRIYMPVCGSNLKTYNNDCLLRCEINSDLGRANNLRKIADQACDNLTDNVNDFIPQEY (His-tagged) [Wild-type AaTI]”, the Ki in test [5] was 320 nM; in test [3], 3.8 nM. Moreover, the half-maximal inhibitory concentration (IC50) in test [1] is greater than 10000 nM.

As to “Inf4 with C6 region replaced with that of AaTI (His-tagged) [Inf4_AaTI C6]”, in test [1], the IC50 was determined as 6.2 ± 0.8 nM.

Turning to “AaTI with C1C3 and C3C4 regions of Inf4 (His-tagged) [AaTI_Inf4 C1C3+C3C4]”, the half-inhibitory concentration (IC50) in test [1] was 147 ± 42.9 nM.

For the substance “AaTI with C1C3 and C5C6 regions of Inf4 (His-tagged) [AaTI_Inf4 C1C3+C5C6]”, the half-maximal inhibitory concentration (IC50) in test [1] was 113 ± 16.7 nM.

For the substance “AaTI with C1C3 region of Inf4 and N27G (His-tagged) [AaTI_Inf4 C1C3+N27G]”, the IC50 in test [1] is 58 ± 14.8 nM.

On to Inf4_F10P (domain or fragment), for which the IC50 of inhibition of FXIIa activity, chromogenic assay (substrate S-2302) in test [4] came to 11.6 nM.

In the case of “AaTI with C1C3 region of Inf4 (His-tagged) [AaTI_Inf4 C1C3]”, the half-inhibitory concentration (IC50) in test [1] came out at 4680 ± 3830 nM.

In test [4], “Wild-type Infestin-4 (domain or fragment)” returned an IC50 of inhibition of FXIIa activity, chromogenic assay (substrate S-2302) of 3.1 nM.
